Assay: Solubility of paclitaxel and docetaxel in triglycerides
Format: physicochemical
Settings: no recrystallization at room temperature; for Solubility in Labrafac CC: triglyceride Labrafac CC, C8 content 56.7%; for Solubility in Miglyol 810 N: triglyceride Miglyol 810 N, C8 content 70.4%; for Solubility in Tricaprylin: triglyceride Tricaprylin, C8 >99%
Protocol: A solution of docetaxel or paclitaxel in triglycerides, which will constitute the inner core of the lipid nanocapsules, is prepared by dissolving the drug into the triglyceride at 75° C. The amount of drug is adjusted in order to obtain solutions that will not recrystallize upon cooling to room temperature.

| Solubility in Labrafac CC | Solubility in Miglyol 810 N | Solubility in Tricaprylin | Compound |
| --- | --- | --- | --- |
| 2 % w/w | 3.9 % w/w | 7 % w/w | CC(=O)O[C@@]12CO[C@@H]1C[C@H](O)[C@@]1(C)C(=O)[C@H](O)C3=C(C)[C@@H](OC(=O)[C@H](O)[C@@H](NC(=O)OC(C)(C)C)c4ccccc4)C[C@@](O)([C@@H](OC(=O)c4ccccc4)[C@H]21)C3(C)C [Docetaxel, docetaxel] |
| 1.6 % w/w | 2.7 % w/w | 6 % w/w | CC(=O)O[C@H]1C(=O)[C@@]2(C)[C@H]([C@H](OC(=O)c3ccccc3)[C@]3(O)C[C@H](OC(=O)[C@H](O)[C@@H](NC(=O)c4ccccc4)c4ccccc4)C(C)=C1C3(C)C)[C@]1(OC(C)=O)CO[C@@H]1C[C@@H]2O [Paclitaxel, paclitaxel] |

Reference: patent publication US20050214378A1, “Stealth lipid nanocapsules, methods for the preparation thereof and use thereof as a carrier for active principle(s)” (ETHYPHARM, priority 2002, published 2005)
